Data published in PubChem BioAssay (NCI).
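The compound was tested at five concentrations on cells cultured in 96-well plates, with a 48-hour exposure period. TGI denotes the concentration required for complete inhibition of growth.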

Key:
Experiment in all cases: inhibition of tumour cell growth, NCI panel, 48 h
OVCAR-8 ovarian = system: OVCAR-8 ovarian
MDA-MB-435 = system: MDA-MB-435
MDA-MB-231 breast = system: MDA-MB-231 breast
HS 578T breast = system: HS 578T breast
A549 NSCLC = system: A549 NSCLC
HOP-62 NSCLC = system: HOP-62 NSCLC
IGROV1 ovarian = system: IGROV1 ovarian
M14 melanoma = system: M14 melanoma
NCI-H460 lung = system: NCI-H460 lung
HCC-2998 colon = system: HCC-2998 colon
NCI/ADR-RES ovarian = system: NCI/ADR-RES ovarian
DU-145 prostate = system: DU-145 prostate
HT29 colon = system: HT29 colon
LOX IMVI melanoma = system: LOX IMVI melanoma
HOP-92 NSCLC = system: HOP-92 NSCLC
TK-10 renal = system: TK-10 renal
NCI-H522 lung = system: NCI-H522 lung
T-47D breast = system: T-47D breast
PC-3 prostate = system: PC-3 prostate
EKVX NSCLC = system: EKVX NSCLC
COLO 205 colon = system: COLO 205 colon
SF-268 CNS = system: SF-268 CNS
UACC-62 melanoma = system: UACC-62 melanoma
SF-295 CNS = system: SF-295 CNS
UACC-257 melanoma = system: UACC-257 melanoma
SK-OV-3 ovarian = system: SK-OV-3 ovarian
SW-620 colon = system: SW-620 colon
HCT-15 colon = system: HCT-15 colon
SK-MEL-28 melanoma = system: SK-MEL-28 melanoma
RXF 393 renal = system: RXF 393 renal
CAKI-1 renal = system: CAKI-1 renal
MOLT-4 leukemia = system: MOLT-4 leukemia
OVCAR-5 ovarian = system: OVCAR-5 ovarian
HCT-116 colon = system: HCT-116 colon
OVCAR-4 ovarian = system: OVCAR-4 ovarian
U251 CNS = system: U251 CNS
SN12C renal = system: SN12C renal
BT-549 breast = system: BT-549 breast
K-562 leukemia = system: K-562 leukemia
CCRF-CEM leukemia = system: CCRF-CEM leukemia
786-0 renal = system: 786-0 renal
SK-MEL-5 melanoma = system: SK-MEL-5 melanoma
KM12 colon = system: KM12 colon
HL-60(TB) leukemia = system: HL-60(TB) leukemia
A498 renal = system: A498 renal
ACHN renal = system: ACHN renal
MCF7 breast = system: MCF7 breast
SR leukemia = system: SR leukemia
NCI-H23 lung = system: NCI-H23 lung
SNB-75 CNS = system: SNB-75 CNS
NCI-H226 lung = system: NCI-H226 lung
MALME-3M melanoma = system: MALME-3M melanoma
UO-31 renal = system: UO-31 renal
MDA-N = system: MDA-N
SNB-19 CNS = system: SNB-19 CNS
OVCAR-3 ovarian = system: OVCAR-3 ovarian

c1ccc(-c2cs[s+]c2)cc1 was tested, and the TGI (OVCAR-8 ovarian) was over 100 µM, the TGI (MDA-MB-435) was over 100 µM and the TGI (MDA-MB-231 breast) was over 100 µM. For the same compound, the TGI (HS 578T breast) was over 100 µM, the TGI (A549 NSCLC) was over 100 µM and the TGI (HOP-62 NSCLC) was over 100 µM. The TGI (IGROV1 ovarian) was over 100 µM, the TGI (M14 melanoma) was over 100 µM and the TGI (NCI-H460 lung) was over 100 µM. For the same compound, the TGI (HCC-2998 colon) was over 100 µM, the TGI (NCI/ADR-RES ovarian) was over 100 µM and the TGI (DU-145 prostate) was over 100 µM. The TGI (HT29 colon) was over 100 µM, the TGI (LOX IMVI melanoma) was over 100 µM and the TGI (HOP-92 NSCLC) was over 100 µM. The TGI (TK-10 renal) was over 100 µM, the TGI (NCI-H522 lung) was over 100 µM and the TGI (T-47D breast) was over 100 µM. For the same compound, the TGI (PC-3 prostate) was over 100 µM, the TGI (EKVX NSCLC) was over 100 µM and the TGI (COLO 205 colon) was over 100 µM. The TGI (SF-268 CNS) was over 100 µM, the TGI (UACC-62 melanoma) was over 100 µM and the TGI (SF-295 CNS) was over 100 µM. It also gave a TGI (UACC-257 melanoma) of over 100 µM, a TGI (SK-OV-3 ovarian) of over 100 µM and a TGI (SW-620 colon) of over 100 µM. It also gave a TGI (HCT-15 colon) of over 100 µM, a TGI (SK-MEL-28 melanoma) of over 100 µM and a TGI (RXF 393 renal) of over 100 µM. For the same compound, the TGI (CAKI-1 renal) was over 100 µM, the TGI (MOLT-4 leukemia) was 85.6 µM and the TGI (OVCAR-5 ovarian) was over 100 µM. The TGI (HCT-116 colon) was over 100 µM, the TGI (OVCAR-4 ovarian) was over 100 µM and the TGI (U251 CNS) was over 100 µM. It also gave a TGI (SN12C renal) of over 100 µM, a TGI (BT-549 breast) of over 100 µM and a TGI (K-562 leukemia) of over 100 µM. The TGI (CCRF-CEM leukemia) was 83.1 µM, the TGI (786-0 renal) was over 100 µM and the TGI (SK-MEL-5 melanoma) was over 100 µM. For the same compound, the TGI (KM12 colon) was over 100 µM, the TGI (HL-60(TB) leukemia) was over 100 µM and the TGI (A498 renal) was over 100 µM. For the same compound, the TGI (ACHN renal) was over 100 µM, the TGI (MCF7 breast) was over 100 µM and the TGI (SR leukemia) was over 100 µM. The TGI (NCI-H23 lung) was over 100 µM, the TGI (SNB-75 CNS) was over 100 µM and the TGI (NCI-H226 lung) was over 100 µM. The TGI (MALME-3M melanoma) was over 100 µM, the TGI (UO-31 renal) was over 100 µM and the TGI (MDA-N) was over 100 µM. For the same compound, the TGI (SNB-19 CNS) was over 100 µM and the TGI (OVCAR-3 ovarian) was over 100 µM.
